Laboratory results taken from US20090221540A1, “Method of Treating An Acute Vascular Disorder” (PANTARHEI BIOSCIENCE B.V., priority 2006, published 2009).
Like-named read-outs stand apart in the source and are kept apart here.

Key:
[1] = test system: coronary and cerebral arteries; conditions: in vitro; cited from earlier work
[2] = single oral dose pharmacokinetics study of estetrol in healthy postmenopausal volunteers; type: in vivo, human; conditions: for Cmax: po
Experimental: (§1) A double-blind, randomized, placebo-controlled, single dose study was performed to determine the safety, tolerability and pharmacokinetics of 1, 10 and 100 mg orally administered estetrol in healthy postmenopausal volunteers (menopause defined as ≧12 months amenorrhea or six months amenorrhea with serum FSH levels ≧40 IU/L and serum E2<73 pmol/L), a Body Mass Index of 18-30 kg/m^2, non-smoking, good physical and mental health as judged by the investigator determined by medical history, physical examination, clinical laboratory, vital signs and ECG recording). In each dose group, six subjects received estetrol treatment and two subjects received placebo.
Estetrol and placebo medication was formulated as a solution (propylene glycol/water mixture) and was delivered in separate bottles for each volunteer. Bottles contained 1 mg or 10 mg estetrol per 50 ml for subjects of the groups that received 1 mg or 10 mg estetrol and 100 mg per 200 ml for the group receiving 100 mg estetrol.
(§2) Screening took place within two weeks before investigational drug administration. During and after drug administration, subjects were admitted to a Clinical Pharmacology Unit for approximately 60 hours for intensive safety monitoring. Safety and tolerability were documented by monitoring (serious) adverse events, physical examinations including vital signs, and safety laboratory assessments (hematology, biochemistry, urinalysis). Frequent blood sampling (within the range of 15 minutes to 168 hours) was performed to assess estetrol plasma concentration and pharmacokinetic variables. For this, plasma samples were subjected to liquid-liquid extraction (hexane and diethyl ether) and further subjected to HPLC analysis (Perkin Elmer 200) and tandem mass spectrometry using a PE Sciex 4000 tandem mass spectrometer and APCI interface. With each sample batch, a calibration curve with 6 calibrators was recorded. The calibration curve was calculated using linear regression (correlation coefficient >0.98), which permitted quantification of estetrol plasma concentrations.

[3] = safety and tolerability of single oral doses of estetrol in healthy postmenopausal volunteers; type: in vivo, human
Experimental: as §1, §2

[4] = test system: angina pectoris induced by coronary artery disease; assay: clinical trial of on demand oral estetrol versus placebo in angina pectoris; type: in vivo, human; conditions: 100 mg per dose
Experimental: A clinical trial is conducted with single dose, on demand oral estetrol administration of 100 mg in subjects suffering from documented angina pectoris and is compared to placebo treatment. Additionally, patients in this trial are offered to use their standard on demand medication, e.g. nitroglycerin. Hundred patients, males and females, with a diagnosis of angina pectoris induced by coronary artery disease, substantiated by positive dynamic tests of myocardial ischaemia, participate in the clinical trial. Patients are selected according to the following inclusion (I) and exclusion (E) criteria: Patients with clear angina pectoris diagnosis (I), patients having chest pain attacks more than two times a week (I). Patients with active myocardial infarct or other cardiopulmonary heart disease, such as severe psychoneurosis, menopausal syndrome and chest pain caused by cervical spondylopathy (E), patients of angina pectoris combined with hypertension (bloodpressure >24/14.87 Kpa) (E), patients of severe cardiopulmonary function deficiency, severe arrhythmia, abnormal liver and renal function and/or hematopoietic disease (E), breast-feeding women and patients with a known history of allergic disease (E), patients younger than 18 or older than 70 (E).
The diagnostic standard for angina pectoris severity is used to describe baseline patient characteristics and subsequently to monitor treatment efficacy (see below).
Low-grade: Typical attack of angina pectoris, which usually lasts a few minutes and occurs 1-3 times a day. The attack is not severe, but the patient sometimes needs to take nitroglycerin. Mid-grade: Angina attack occurs more than 3 times everyday and lasts several to ten minutes every time. The pain is more severe than that of the low-grade attack and the patient generally needs sublingual nitroglycerin. High-grade: Angina attack occurs frequently daily. It lasts longer and more seriously. Routine life is affected. The patient needs to use nitroglycerin frequently.
The diagnostic standard for angina pectoris types is used to describe baseline characteristics and classify patient types.
Exertionally-induced angina pectoris: The transient attack of chest pain is caused typically by exertion or other conditions that increase myocardial oxygen demands. The pain normally disappears rapidly after rest or administration of sublingual nitroglycerin. Spontaneous angina pectoris: The attack of chest pain is not obviously related to increase of myocardial oxygen consumption. Compared with tiredness-induced angina pectoris, the pain lasts longer and is more severe. It can not be easily alleviated by nitroglycerin. Mixed Angina Pectoris: Spontaneous angina pectoris can come with tiredness-induced angina pectoris and is classified as mixed angina pectoris. […]

migraine = assay: double-blind, placebo-controlled, multiple attack clinical study of on demand oral estetrol in migraine; type: in vivo, human
Experimental: A double-blind, placebo-controlled, multiple attack clinical study is conducted with single dose, on demand oral estetrol administration in adult volunteers (20 females and 20 males) each of whom is seeking migraine relief. Participating subjects show at least a 1-year history of migraine as is defined by International Headache Society criteria (IHS; Headache Classification Committee of the International Headache Society, 1988, Cephalalgia 8 (Suppl. 7):19-28) and report regularly occurring migraines with episodes of pain, photophobia and nausea. Each participant receives blinded medication in two differently labeled bottles, filled with tablets. One bottle comprises tablets that contain 100 mg estetrol, whilst the other bottle contains identical placebo tablets. Participants are allowed to choose from which bottle to orally ingest a tablet at the moment the first symptoms of a migraine attack become apparent. Patients are asked to keep daily records stating the number of migraine attacks, severity of attacks, duration of attacks and use of medication (bottle 1 or bottle 2) for the entire study period of 2 months.

[5] = test system: erectile dysfunction primarily due to vascular causes; assay: clinical trial of on demand oral estetrol versus placebo in erectile dysfunction (SFQ); type: in vivo, human; conditions: 100 mg per dose
Experimental: As a novel method single dose, on demand oral estetrol administration is tested to treat erectile dysfunction and compared to placebo treatment. A clinical trial is performed in 20 subjects, experiencing erectile dysfunction that is primarily due to vascular causes and in whom intracavernous injection of either papaverine or phentolamine has been previously proven successful in restoring erectile function. Ten subjects receive estetrol medication (100 mg per dose) and 10 subjects receive placebo medication in this outclinic study. Subjects with mild, moderate as well as severe symptoms of erectile dysfunction are instructed on the use of investigational drug medication, which is preferentially being taken 15 minutes to 2 hours before sexual activity. At the start of the trial, subjects are asked to fill out a baseline Sexual Functioning Questionnaire (SFQ). The SFQ is used as the primary endpoint, since this is a self-administered questionnaire and designed to measure changes in sexual function (Smith et al., 2002, British J. Psych., 181:49-55). It asks detailed questions about libido, physical arousal (erection), masturbation, orgasm and ejaculation. It is designed such that higher scores indicate greater dysfunction. Typically total normal controls scores are less than 14 and sexually disfunctioning patients show total scores of more than 18 (Smith et al., 2002, British J. Psych., 181:49-55). […] At the end of the study period at 4 weeks, subject's responses to SFQ survey questions are compared to SFQ responses at baseline. For separate SFQ variables, a comparison is made of those subjects who initially show a bad baseline score. The results are then pooled and expressed as the percentage of subjects with improvement.

C[C@]12CC[C@@H]3c4ccc(O)cc4CC[C@H]3[C@@H]1CC[C@@H]2O [17β-estradiol]
effect on coronary and cerebral arteries [1]: relaxant effect

C[C@]12CC[C@@H]3c4ccc(O)cc4CC[C@H]3[C@@H]1[C@@H](O)[C@@H](O)[C@@H]2O [estetrol, 1,3,5 (10)-estratrien-3,15α,16α,17β-tetrol]
time of maximum plasma concentrations post-dosing ([2]; 1 mg oral dose group): 15 min
Cmax ([2]; female, human, plasma, 1 mg, 1 mg oral estetrol, read-out: Cmax (median)): 0.52 ng/mL
Cmax ([2]; female, human, plasma, 1 mg, 1 mg oral estetrol, read-out: Cmax (range)): 0.39 to 1.2 ng/mL
Cmax ([2]; female, human, plasma, 10 mg, 10 mg oral estetrol, read-out: Cmax (median)): 9.4 ng/mL
Cmax ([2]; female, human, plasma, 10 mg, 10 mg oral estetrol, read-out: Cmax (range)): 5.4 to 11.6 ng/mL
Cmax ([2]; female, human, plasma, 100 mg, 100 mg oral estetrol, read-out: Cmax (median)): 148 ng/mL
Cmax ([2]; female, human, plasma, 100 mg, 100 mg oral estetrol, read-out: Cmax (range)): 119 to 213 ng/mL
half-life ([2]; female, human, plasma, single oral dose, final elimination phase, read-out: terminal half-life (converted)): ~28 h
gastro-intestinal absorption ([2]; oral dosing 1, 10 and 100 mg): good gastro-intestinal absorption
inter-subject variability of pharmacokinetic profile ([2]; oral dosing 1, 10 and 100 mg): low inter-subject variability
speed of absorption ([2]; single oral dose): extremely fast
start of slow phase of final elimination post-dosing ([2]; single oral dose): approximately 24 hours
changes in vital signs, haematology, biochemistry or urinalysis ([3]; 1, 10 and 100 mg estetrol): no clinically significant changes
severe or serious adverse events ([3]; 1, 10 and 100 mg estetrol): No severe or serious adverse events
safety and tolerability profile ([3]; single oral doses of 1, 10 and 100 mg): safe and well tolerated
patient-reported effect on angina pectoris symptoms ([4]; on demand oral): relief of angina pectoris symptoms
side effects versus placebo ([4]; on demand oral, 4 weeks): no obvious side effects
use of nitroglycerin versus placebo arm ([4]; on demand oral, 4 weeks): significantly lower than in the placebo arm
improvement of exercise tolerance, ability to extend the duration of walking and quality of life ([4]; versus placebo): statistically more improvement
headache and relief of migraine symptoms versus baseline analgesic and/or triptan-type medication (migraine; 100 mg estetrol tablets): less headache and more quicker relief of migraine symptoms
side effects directly related to investigational drug (migraine; 100 mg estetrol tablets, on demand, 2 months): No apparent side effects
tablet use by participants, estetrol versus placebo (migraine; free choice between blinded bottles, 2 months): significantly more estetrol containing tablets than placebo tablets
improvement in satisfaction with overall sex life versus placebo ([5]; SFQ at 4 weeks): more subjects report improvement
percentage of subjects with improvement in the ability to develop and maintain erections versus placebo ([5]; SFQ at 4 weeks versus baseline): higher percentage of subjects that show improvement
tolerability ([5]; on demand oral, 4 weeks): well tolerated
